We go through 10 compounds from patent US7803826B2, “Imidazolidine derivatives” (Chugai Seiyaku Kabushiki Kaisha, priority 2004, dated 2010).

As usually defined, the IC50 is the concentration needed to halve the response being measured.

The test system of one data set is castrated rats. The following applies: continuously administered for two weeks; cited from earlier work.
The target of data set [1] is T1, human androgen receptor (Homo sapiens, UniProt P10275).
T1 construct: expressed in transfected cells
T1 sequence (P10275 1-920): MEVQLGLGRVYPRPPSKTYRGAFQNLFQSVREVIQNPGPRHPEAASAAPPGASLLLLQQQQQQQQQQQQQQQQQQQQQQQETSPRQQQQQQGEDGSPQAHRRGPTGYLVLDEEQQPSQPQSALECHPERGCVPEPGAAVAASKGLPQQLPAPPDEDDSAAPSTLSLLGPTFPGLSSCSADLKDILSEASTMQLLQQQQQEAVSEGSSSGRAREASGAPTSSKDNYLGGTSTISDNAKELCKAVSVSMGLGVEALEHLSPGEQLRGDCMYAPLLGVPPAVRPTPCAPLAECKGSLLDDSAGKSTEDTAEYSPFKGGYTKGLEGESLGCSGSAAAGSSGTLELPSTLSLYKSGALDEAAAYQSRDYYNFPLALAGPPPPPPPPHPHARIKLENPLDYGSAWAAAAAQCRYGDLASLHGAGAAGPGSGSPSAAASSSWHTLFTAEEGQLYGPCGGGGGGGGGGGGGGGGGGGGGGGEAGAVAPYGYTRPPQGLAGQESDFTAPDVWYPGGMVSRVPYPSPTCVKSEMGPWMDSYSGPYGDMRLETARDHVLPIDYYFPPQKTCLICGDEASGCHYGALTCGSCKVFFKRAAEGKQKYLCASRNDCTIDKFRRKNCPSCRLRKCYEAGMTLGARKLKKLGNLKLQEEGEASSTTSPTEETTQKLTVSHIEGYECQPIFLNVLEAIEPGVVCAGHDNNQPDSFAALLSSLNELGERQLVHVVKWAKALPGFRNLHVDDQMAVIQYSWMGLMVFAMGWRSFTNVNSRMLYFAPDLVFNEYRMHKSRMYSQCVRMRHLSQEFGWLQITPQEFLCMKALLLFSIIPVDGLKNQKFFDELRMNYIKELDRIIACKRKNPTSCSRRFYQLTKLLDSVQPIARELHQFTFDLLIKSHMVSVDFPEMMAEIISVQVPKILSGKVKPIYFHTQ
Kind of data set: Investigation of agonist effects: androgen receptor reporter gene (MMTV-luciferase) assay in 11A11B2 cells. It counts as cell-based. The following applies: compound concentration showing a transcription activity of 5% (0.1 nmol/L DHT = 100%, assay medium alone = 0%), 48 hours. As to the method:
(§1) HeLa cells (purchased from Dai-Nippon Seiyaku K.K.) were cultured overnight in Dulbecco's Modified Eagle Medium containing no phenol red, but containing 3% charcoal-treated fetal bovine serum (hereafter referred to as DCC-FBS) (this medium is hereafter referred to as phenol-red-free DMEM). An MMTV-Luc-Hyg vector (reporter plasmid with mouse mammary tumor virus long terminal repeat as an androgen response element: vector obtained by substituting the chloramphenicol acetyl transferease gene of a GM-CAT vector (A.T.C.C No. 67282) purchased from the A.T.C.C. with the firefly luciferase gene, and inserting a hygromycin resistance gene as a drug resistance gene), and pSG5-hAR-neo (human androgen receptor expression vector: a vector having an androgen receptor gene under the control of the SV40 promoter, and having a neomycin resistance gene inserted as a drug resistance gene) were transfected into the HeLa cells using an FuGENE™ 6 Transfection Reagent (obtained from Roche).
(§2) A clone in which transcription activity was elevated in a dose-dependent manner by dihydrotestosterone was obtained by culturing the transfected cells in DMEM containing 500 μg/mL neomycin, 300 μg/mL hygromycin and 10% fetal bovine serum (hereafter referred to as FBS). The clone cells thus obtained (11A11B2 cells) were maintained and propagated using DMEM containing 400 μg/mL neomycin, 200 μg/mL hygromycin and 10% FBS, and were propagated using phenol-red-free DMEM containing 10% DCC-FBS three to four days prior to the performance of an androgen receptor reporter gene assay.
The 11A11B2 cells were inoculated in a white clear-bottomed 96-well microplate (COSTAR) so that the cell concentration was 1.0×10^4/well, using phenol-red-free DMEM containing 3% DCC-FBS (hereafter referred to as the assay medium), and were cultured overnight. The assay medium containing the compounds of the examples and compounds of the comparative examples were added so that the final concentrations of the compounds of the examples and compounds of the comparative examples were 1, 10, 100, 1,000 and 10,000 nmol/L (however, in the case of the compounds of Examples 1 and 2, the compounds were added so that the final concentrations were […]), and the cells were cultured for 48 hours, after which the transcription activity value was measured. The transcription activity was measured using a Bright-Glo™ Luciferase Assay System (Promega).
The transcription activity rates of the compounds of the examples were calculated from the transcription activity measured by the abovementioned method, with the transcription activity value obtained at 0.1 nmol/L DHT taken as 100%, and the transcription activity value in the case of the assay medium alone taken as 0%. The compound concentration showing a transcription activity of 5% (EC5 value) was calculated from a linear equation for two points on either side of 5%.

For data set [2] the following is noted: prostate cancer patients treated with flutamide; cited from earlier work.
Another data set addresses androgen receptor (Homo sapiens, UniProt P10275). The following applies: at a concentration of 10 μmol/L; cited from earlier work.
Data set [3] deals with T1, human androgen receptor. Kind of data set: Investigation of antagonist effects: androgen receptor reporter gene (MMTV-luciferase) assay in 11A11B2 cells with 0.1 nmol/L DHT. The data set is classed as cell-based. How it is done:
as §1, §2
After culturing for 48 hours, the transcription activity values were measured. The transcription activity was measured using a Bright-Glo™ Luciferase Assay System (Promega).
The transcription activity rates of the compounds of the examples were calculated from the transcription activity measured by the abovementioned method, with the transcription activity value obtained at 0.1 nmol/L DHT taken as 100%, and the transcription activity value in the case of the assay medium alone taken as 0%.
Accordingly, the value obtained by subtracting the transcription activity rate of Test Example 1 (Investigation of Agonist Activity) from the transcription activity rate of Test Example 2 (Investigation of Antagonist Activity) was used to calculate the compound concentration at which a transcription activity of 50% was shown (IC50 value). The IC50 value was calculated from a linear equation for two points on either side of 50%.
On the technique in general: A reporter such as luciferase makes a cellular process visible.

The mark [4] stands for this setting: 11A11B2 cells, 0.1 nmol/L DHT, 48 hours, agonist transcription activity rate of Test Example 1 subtracted, read-out: IC50.

Where two headings read alike, the source gives them in different places.

With `CC(=O)O[C@]1(C(C)=O)CC[C@H]2[C@@H]3C=C(Cl)C4=CC(=O)CC[C@]4(C)[C@H]3CC[C@@]21C` [chlormadinone acetate], in the data set on castrated rats, the “weight of the prostate gland” value is reported as “increase”.
For the compound `CC(C)(O)C(=O)Nc1ccc([N+](=O)[O-])c(C(F)(F)F)c1` [Comparative Example 4, hydroxyflutamide], on human androgen receptor [1], the EC5 is 0.01 µM. Also, in data set [2], the “hydroxyflutamide concentration in the blood” value was “several”. The “androgen receptor transcription activity” value at androgen receptor is “increase”.
Take `CC1(C)C(=O)N(c2ccc(C#N)c(Cl)c2)C(=S)N1CCCCCS(N)(=O)=O` [Example 27, 5-[3-(3-chloro-4-cyanophenyl)-5,5-dimethyl-4-oxo-2-thioxoimidazolidin-1-yl]pentane-1-sulfonic acid amide]: on human androgen receptor [1], the EC5 is >10 µM. Further, on human androgen receptor [3] (setting [4]), the IC50 worked out at 400 nM.
In the case of `CN1C(=S)N(c2ccc(C#N)c(C(F)(F)F)c2)C(=O)C1(C)C` [Comparative Example 1, 4-(5-oxo-2-thioxo-3,4,4-trimethyl-1-imidazolidinyl)-2-trifluoromethylbenzonitrile, reference compound], on human androgen receptor [1], the EC5 was determined as 8e-05 µM.
Still for that read-out and setting: to `CC(=O)NCCN1C(=S)N(c2ccc(C#N)c(C(F)(F)F)c2)C(=O)C1(C)C` [Comparative Example 2, 4-[3′-(2″-N-acetylaminoethyl)-4′,4′-dimethyl-5′-oxo-2′-thioxo-1′-imidazolidinyl]-2-trifluoromethylbenzonitrile, reference compound] belongs 3 µM.
On to `CC1(C)C(=O)N(c2ccc(C#N)c(Cl)c2)C(=S)N1CCCCS(N)(=O)=O` [Example 26, 4-[3-(3-chloro-4-cyanophenyl)-5,5-dimethyl-4-oxo-2-thioxoimidazolidin-1-yl]butane-1-sulfonic acid amide], for which, at human androgen receptor [1], the EC5 is >10 µM. On human androgen receptor [3] (setting [4]), the IC50 came out at 900 nM.
In the case of `COc1cc(N2C(=O)C(C)(C)N(CCCS(N)(=O)=O)C2=S)ccc1C#N` [Example 2, 3-[3-(4-cyano-3-methoxyphenyl)-5,5-dimethyl-4-oxo-2-thioxoimidazolidin-1-yl]propane-1-sulfonic acid amide], on human androgen receptor [1], the EC5 is >10 µM. For the same compound, the IC50 on human androgen receptor [3] (setting [4]) came to 300 nM.
For `CC1(C)C(=O)N(c2ccc(C#N)c(Cl)c2)C(=S)N1CCCS(N)(=O)=O` [Example 1, 3-[3-(3-chloro-4-cyanophenyl)-5,5-dimethyl-4-oxo-2-thioxoimidazolidin-1-yl]propane-1-sulfonic acid amide], the EC5 at human androgen receptor [1] was >10 µM. The half-maximal inhibitory concentration (IC50) against human androgen receptor [3] came to 200 nM.
Consider `CC1(C)C(=O)N(c2ccc(C#N)c(Cl)c2)C(=S)N1CCS(N)(=O)=O` [Example 28, 2-[3-(3-chloro-4-cyanophenyl)-5,5-dimethyl-4-oxo-2-thioxoimidazolidin-1-yl]ethane-1-sulfonic acid amide], for which, on human androgen receptor [1], the EC5 was >10 µM. Also, on human androgen receptor [3] (setting [4]), the half-maximal inhibitory concentration (IC50) was 400 nM.
Regarding `CC(=O)O[C@]1(C(C)=O)CC[C@H]2[C@@H]3C=C(Cl)C4=CC(=O)[C@@H]5C[C@@H]5[C@]4(C)[C@H]3CC[C@@]21C` [cyproterone acetate], the “weight of the prostate gland” value with castrated rats was “increase”.
